Six sequences from paper PMC7321301, “Characteristics of New Peptides GQLGEHGGAGMG, GEHGGAGMGGGQFQPV, EQGFLPGPEESGR, RLARAGLAQ, YGNPVGGVGH, and GNPVGGVGHGTTGT as Inhibitors of Enzymes Involved in Metabolic Syndrome and Antimicrobial Potential” (Molecules, 2020) can be followed below.

No end group written: not given here.

For orientation: IC50 means the concentration that inhibits the measured activity by half.

In this experiment the target is T1, α-amylase from hog pancreas (Sus scrofa, UniProt P00690).
T1 construct: α-amylase from hog pancreas (50 U/mg); from tissue; host or cells: hog pancreas
T1 sequence (P00690 16-511): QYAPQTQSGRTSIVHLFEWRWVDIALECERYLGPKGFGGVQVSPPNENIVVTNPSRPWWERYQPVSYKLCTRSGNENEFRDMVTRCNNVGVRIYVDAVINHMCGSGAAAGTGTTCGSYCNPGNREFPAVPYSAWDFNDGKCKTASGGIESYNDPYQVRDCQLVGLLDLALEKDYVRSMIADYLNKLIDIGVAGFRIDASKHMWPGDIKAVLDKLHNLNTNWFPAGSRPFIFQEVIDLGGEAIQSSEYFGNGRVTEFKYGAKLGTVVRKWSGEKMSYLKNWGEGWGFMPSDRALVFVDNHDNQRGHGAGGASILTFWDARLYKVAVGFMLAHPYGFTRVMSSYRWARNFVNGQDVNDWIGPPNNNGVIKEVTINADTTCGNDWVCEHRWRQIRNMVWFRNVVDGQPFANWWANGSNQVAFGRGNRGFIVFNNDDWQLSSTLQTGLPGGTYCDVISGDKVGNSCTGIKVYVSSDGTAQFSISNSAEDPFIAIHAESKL
In words: α-amylase inhibitory activity (starch, DNS) and kinetics. In kind it is biochemical. How it is done:
For all inhibitory activity, IC50 was calculated. […] The IC50 value was calculated from the plotted graph of the inhibition activity for the five different peptide concentrations. […] To measure the α-amylase inhibitory activity, a mixture of 25 μL of α-amylase solution and 25 μL of sample was first incubated at 40 °C for 5 min. Then, 50 μL of 1% (w/v) soluble starch (dissolved in 100 mM phosphate buffer containing 6 mM NaCl, pH 7) was added. After 10 min, the reaction was stopped by adding 100 μL of 3,5-dinitrosalicylic acid (DNS) and heating for 10 min. Then, the mixture was made up to 300 μL with double distilled water. After that, the absorbance at 540 nm was measured using BioTek Microplate Readers (EpochTM 2 BioTek, Bad Friedrichshall, Germany). The final results were compared with the activity of the same amount of enzyme without the inhibitor. All assays were carried out in triplicate. For IC50 value determination, the inhibitory activity for […] of samples was investigated. […] The kinetic parameters were evaluated by Lineweaver-Burk's method. The reaction conditions were the same as in the enzyme inhibitory activity assay.
For EQGFLPGPEESGR [ER-13, EQGFLPGPEESGR], 51.1 µM corresponded to half-maximal inhibition (IC50).

On to “GEHGGAGMGGGQFQPV [GV-16, GEHGGAGMGGGQFQPV]”, for which 44.6 µM corresponded to half-maximal inhibition (IC50).

Sequence GNPVGGVGHGTTGT [GT-14, GNPVGGVGHGTTGT] gave an IC50 of 50 µM.

GQLGEHGGAGMG [GG-12, GQLGEHGGAGMG] had an IC50 of 53 µM.

Sequence RLARAGLAQ [RQ-9, RLARAGLAQ] gave an IC50 of 69.9 µM.

YGNPVGGVGH [YH-10, YGNPVGGVGH] showed an IC50 of 80.3 µM.
